From US20240122853A1, “COMPOSITION FOR PENETRATING BLOOD-BRAIN BARRIER, CONTAINING SONOSENSITIVE LIPOSOMES AS ACTIVE INGREDIENTS” (IMGT CO, LTD., priority 2021, published 2024)

Assay: Evans blue penetration after blood-brain barrier opening by ultrasound and microbubbles
Format: in vivo, BALB/c nude mice
Description: To derive the optimal ultrasound conditions for opening the blood-brain barrier (BBB), the degree of opening of the blood-brain barrier was compared and analyzed using Evans blue. Evans blue is a very small dye with a molecular weight of 961 Da and is widely used for analyzing the degree of opening of the blood-brain barrier. The experiment was performed using normal BALB/c nude mice, and after injecting microbubbles via intravenous injection, ultrasound was emitted using a high-intensity focused ultrasound device, VIFU2000. […] The brain tissue was soaked in formamide, incubated overnight at 70° C. to extract Evans blue in the brain tissue, and the degree of opening of the blood-brain barrier was quantitatively analyzed by measuring the absorbance at wavelengths of 670 nm and 740 nm using UV-vis.
Factors that can affect the cavitation of ultrasound and microbubbles, a mechanism that opens the blood-brain barrier, include ultrasound conditions such as the frequency, intensity, duty cycle, and ultrasound emission time of the ultrasound, and also the number of microbubbles. Therefore, to confirm the ultrasound conditions and the number of microbubbles that can open the blood-brain barrier, the degree of opening of the blood-brain barrier according to the number of microbubbles was first quantitatively analyzed. […]

Penetration effect into brain depending on ultrasound intensity and emission time (microbubbles 5×10^6/g, 1-3 W, duty cycle 1-10%, 60-180 s): increased proportionally
Structure (SMILES): Cc1cc(-c2ccc(/N=N/c3ccc4c(S(=O)(=O)O)cc(S(=O)(=O)O)c(N)c4c3O)c(C)c2)ccc1/N=N/c1ccc2c(S(=O)(=O)O)cc(S(=O)(=O)O)c(N)c2c1O [Evans blue]
Penetration efficiency into brain depending on number of microbubbles (1 MHz, 1 W, DC 5%, PRF 1 Hz, 60 s, 2, 5, 10 × 10^6/g microbubbles, brain 24 hours later): improving the penetration efficiency of Evans blue
